From patent publication US7579006B2, “Method of treating immune pathologies with low dose estrogen” (Oregon Health and Science University, priority 2000, dated 2009)
Where two headings read alike, the source gives them in different places.

Columns and labels:
Tg female mice = assay: EAE in BV8S2 transgenic (Tg) female mice; type: in vivo; conditions: for inhibition of EAE: Tg females
spinal cord mRNA = assay: RNase protection assay of chemokine, chemokine receptor and cytokine mRNA in spinal cords of Tg females with EAE; type: in vivo, mice; conditions: 0.36 mg pellet
Experimental: RNase protection assay. Total RNA was extracted from frozen spinal cords or lymph node cells using the STAT-60 reagent (Tel-Test, Inc., Friendswood, Tex.). Chemokine expression was determined by using the RiboQuant RPA kit (PharMingen) according to the manufacturer's instructions. A multiprobe set detected the following chemokine transcripts: C—X—C chemokines: MIP-2 and IP-10; C—C chemokines: RANTES, MIP-1α, MCP-1, and TCA-3; and C chemokine: Ltn. The chemokine receptor set detected the following transcripts: CCR1, CCR1b, CCR2, CCR3, CCR4, CCR5. Using RPA multiprobe it was possible to detect the following cytokines: IL-4, IL-10, TNF-α, LTβ, IFN-γ. The sample loading was normalized by the housekeeping gene, L32, included in each template set. RPA analysis was performed on […] total RNA hybridized with probes labeled with [^32P]UTP. After digestion of ssRNA, the RNA pellet was solubilized and resolved on a 5% sequencing gel. Controls included the probe set hybridized to transfer RNA only, appropriate control RNA which serves as integrity control for the RNA sample, and yeast tRNA as a background control. For quantification, gels were exposed by phosphorimaging (Bio-Rad Laboratories, Hercules, Calif.) and radioactivity in individual bands (after background subtraction) in comparison with L32 was assessed with Quantity One software (Bio-Rad Laboratories, Hercules, Calif.).
To optimize detection of clinically-related changes, chemokine expression was compared in 17β-estradiol protected versus sham pellet implanted mice during the peak acute phase of disease (16-17 days after immunization with MBP-Ac1-11 peptide/CFA) and during the chronic phase (28 days after immunization). […] A quantitative method—the RNase protection assay—was employed to examine RNA synthesis for the following chemokines: RANTES, MIP-1α, MCP-1, and TCA-3 (C—C-subfamily); and MIP-2 and IP-10 (C—X—C-subfamily). The tissue sample for RPA was prepared by homogenization of whole spinal cord and total cellular RNA was extracted.

C57BL/6 mice = assay: EAE induced with MOG 35-55 in C57BL/6 mice (clinical, histopathology); type: in vivo
Experimental: Estrogen treatment. Sixty-day release pellets containing 2.5 mg of 17β-estradiol (E2) or vehicle were implanted subcutaneously (s.c) in the scapular region behind the neck using a 12-gauge trochar as described by the manufacturer (Innovative Research of America, Sarasota, Fla.). The mice were implanted one week prior to immunization with MOG 35-55. The concentration of E2 expected in the serum is between 1,500-2,000 pg/ml, which is approximately 5 times less than the levels found during pregnancy.
Induction of EAE. C57BL/6 and cytokine deficient mice were inoculated s.c in the flanks with 0.2 ml of an emulsion containing 200 μg of MOG 35-55 in saline and an equal volume of complete Freund's Adjuvant (CFA) containing 400 μg of Mycobacterium tuberculosis H37RA (Difco Laboratories, Detroit, Mich.). Disease induction required i.v. administration of pertussis toxin on the day of immunization (25 ng/mouse) and 2 days later (67 ng/mouse). The mice were assessed daily for clinical signs of EAE according to the 7 point scale described in Example I.
Histopathology. Histopathologic assessment of spinal column section was performed essentially as described in Example I, except that sections were stained with either luxol fast blue-periodic acid schiff-hematoxylin or silver nitrate prior to analysis.
Statistical analysis. Significant differences in incidence and mortality between untreated and E2 treated mice were assessed by Chi-square analysis. Difference in onset was determined using the two-tailed Student t test. Differences in peak score and cumulative disease index (CDI) were assessed by the Mann-Whitney test. Statistical significance of the frequency of cytokine secreting cells was analyzed using Student's t test for comparisons of two means. Differences in the expression of chemokine and cytokine mRNA were also determined using the Student t test. Values of p<0.05 were considered significant.

[1] = test system: Vβ8.1/8.2 TCR+ spleen cells; assay: Intracellular cytokine staining of MOG 35-55 stimulated spleen cells; type: in vivo, mice
Experimental: Intracellular staining for cytokines. Single cell suspensions from spleen were prepared from immunized mice and cultured at 10×10^6 cells/ml in stimulation media containing 50 μg/ml of MOG 35-55. The cells were stimulated for 24 hrs, the last 5 hrs in the presence of Brefeldin A. The cells were then stained with anti-Vβ8.1/8.2 TCR FITC for 30 min at 4° C. prior to fixation and permeabilization with cytofix/cytoperm solution (Pharmingen, Inc.). The cells were then stained with anti-cytokine antibodies labeled with phycoerythrin (anti-mouse IFN-γ, TNF-α, IL-4, IL-10, and IL-12 from Pharmingen Inc.) for 30 min at 4° C. The cells were washed twice in perm/wash buffer (Pharmingen, Inc.) and once in FACS staining buffer (PBS, 1% BSA, 0.05% NaN3) prior to two-color FACS analysis on a FACScan instrument (Beckton-Dickenson, Inc., Sunnyvale, Calif.) using Cell Quest software (Beckton-Dickenson, Inc.). For each experiment the cells were stained with isotype control antibodies to establish background staining and to set the quadrants prior to calculating the percent positive cells.
In order to determine whether estrogen treatment promotes a shift towards Th2 immunity, the frequency of both pro- and anti-inflammatory cytokine producing cells in untreated and E2 treated mice was assessed, using the intracellular cytokine staining technique. Spleen cells were prepared from untreated and E2 treated mice at the peak of EAE (day 12-16 post-immunization) and stimulated with MOG 35-55 for 24 hr, the last […] in the presence of Brefeldin A. The cells were stained with FITC labeled anti-Vβ8.1/8.2 TCR antibodies prior to fixation and permeabilization, and then were stained with the indicated phycoerythrin labeled anti-cytokine antibodies. Vβ8.1/8.2 TCR bearing T cells were focused on because they are thought to comprise a major population of the MOG-35-55 specific T cell responses in H-2b mice.

[2] = cited from earlier work
[3] = 0.36 mg pellet, intact Tg females (Example III)
[4] = non-ovariectomized Tg females, BV8S2 with weekly boosting, E2 0.36 mg pellets

C[C@]12CC[C@@H]3c4ccc(O)cc4CC[C@H]3[C@@H]1CC[C@@H]2O [17β-estradiol]
CDI (Tg female mice; [3]): 40.4 ± 7.1 | Incidence (Tg female mice; [3]): 15/18 | Onset (Tg female mice; [3]): 17.4 ± 1.8 | Peak (Tg female mice; [3]): 2.5 ± 0.5 | inhibition of EAE (Tg female mice; 0.36 mg pellets): only moderate inhibition | inhibition of EAE (Tg female mice; 15 mg pellets): marked but incomplete inhibition of EAE | Average CDI (10-30) (Tg female mice; [4]): 37.3 ± 6.2^A | Incidence (Tg female mice; [4]): 25/33 | Mortality (Tg female mice; [4]): 1/33 | Onset (Tg female mice; [4]): 15.1 ± 2.1A | Peak (Tg female mice; [4]): 3.6 ± 0.7^A | LT-β, TNF-α and IFN-γ message in spinal cord at peak of EAE (spinal cord mRNA): significantly inhibited | chemokine mRNA expression in spinal cord (RANTES, MIP-1α, MIP-2, IP-10, MCP-1) (spinal cord mRNA; intact Tg females, peak of disease p<0.001): profoundly lower levels | chemokine mRNA expression in spinal cord (spinal cord mRNA; ovariectomized females): strongly inhibited | mRNA levels for CCR1, CCR2 and CCR5 in spinal cord (spinal cord mRNA; p<0.001): strongly inhibited | CDI (C57BL/6 mice; B6, 2.5 mg pellet): 15.1 ± 17.0 | Incidence (C57BL/6 mice; B6, 2.5 mg pellet): 19/31 | Mortality (C57BL/6 mice; B6, 2.5 mg pellet): 0/31 | Onset (C57BL/6 mice; B6, 2.5 mg pellet): 20.8 ± 3.7 | Peak Score (C57BL/6 mice; B6, 2.5 mg pellet): 4.2 ± 1.2 | Inflammatory foci/section (C57BL/6 mice; C57BL/6, 2.5 mg pellet, spinal cord): 0.0 ± 0.0 Foci/Section | frequency of TNF-α producing Vβ8.1/8.2 TCR+ cells ([1]; C57BL/6 mice, p=0.004): significantly diminished | frequency of TNF-α producing Vβ8.1/8.2 TCR+ cells ([1]; IFN-γ knockout mice): no further reduction | frequency of TNF-α producing Vβ8.1/8.2 TCR+ cells ([1]; IL-4 knockout mice, p=0.06): significantly diminished | frequency of TNF-α producing Vβ8.1/8.2 TCR+ cells ([1]; IL-10 knockout mice, p=0.001): significantly diminished | frequency of IFN-γ producing cells ([1]; trend, p>0.05): lower frequency | serum concentration from 60-day release pellet ([2]; 0.025 mg pellet): 5 to 10 pg/mL | serum concentration from 60-day release pellet ([2]; 0.1 mg pellet): 25 to 50 pg/mL | serum concentration from 60-day release pellet ([2]; 0.36 mg pellet): 150 to 200 pg/mL | serum concentration from 60-day release pellet ([2]; 1.5 mg pellet): 800-1,000 pg/ml | serum concentration from 60-day release pellet ([2]; 2.5 mg pellet): 1,500-2,000 pg/ml | serum concentration from 60-day release pellet ([2]; 5 mg pellet): 3,000-4,000 pg/ml | serum concentration from 60-day release pellet ([2]; 15 mg pellet): 9,000-10,000 pg/ml
